According to patent US9238069B2, “Method of sensitizing cancer cells to the cytotoxic effects of death receptor ligands in cancer treatment” (The United States of America, as represented by the …, priority 2009, dated 2016):

Tests used:
[1] = test system: caspase-8 in ACHN cells; experiment: Western blot of caspase-8 cleavage after sensitizer plus TRAIL; type: cell-based; settings: compound 10 μM, sensitized 4 h, then TRAIL 40 ng/mL, FIG. 5
Description: This Example illustrates cleavage of caspase resulting from treatment of cells with anolides in combination with TRAIL. ACHN cells were seeded into 6-well tissue culture plates at […] cells/well in clear test medium and the next day compound was added to a final concentration of 10 μM. Cells were sensitized for 4 h followed by addition of TRAIL to 40 ng/mL final concentration. Cells were harvested in lysis buffer at short intervals after addition of the TRAIL reagent using 165 μL per well. Lysis buffer contained: 50 mM Tris-Cl (pH 8.0), 300 mM NaCl, 5 mM EDTA, 0.5% Triton X-100, 40 μM Z-VAD-FMK, plus one mini-complete protease inhibitor tablet (Roche, Mannheim, Germany) or 100 μL Halt Protease Inhibitor Single-Use Cocktail (Pierce Biotechnology, Inc., Rockford, Ill.) per 6 mL buffer. Lysates were clarified by centrifugation at 4° C. for 15 min at 15,000 rpm and protein content normalized using the bicinchonic acid (BCA) assay (Pierce Biotechnology, Inc.).
Lysates were run under reducing conditions at 20 μg total protein per lane, in NuPAGE 4-12% Bis-Tris gels (1.0 mm×12 well; Invitrogen), using MESS DS running buffer and added antioxidant in the upper chamber. […]
The Western blots determined using the above protocol for withanolide E is depicted in FIG. 5.

[2] = test system: ACHN renal cancer cells; experiment: SRB dose-response assay for synergy with TRAIL (percent growth inhibition); type: cell-based; settings: 4 h presensitization, TRAIL 20 ng/mL, FIG. 11
Excerpt: FIG. 11 depicts the dose-response curves for withanolide E and withanolide S in the presence of TRAIL. The y-axis represents percent growth inhibition for ACHN renal cancer cells. The lines labeled “−TRAIL” are the dose-response curves for withanolide E and withanolide S in the absence of TRAIL. The lines labeled “predicted +TRAIL” is the predicted additive percent growth inhibition resulting from addition of the growth inhibition due to withanolide E and withanolide S plus TRAIL. The lines labeled “Actual +TRAIL” is the actual percent growth inhibition determined by the assay.
This Example illustrates another aspect of the assay. […] Controls were combined on each assay plate and included: SRB background absorbance (no cells), untreated (DMSO-only) cells, TRAIL-only cells, cytotoxicity positive control −TRAIL (sanguinarine hydrochloride; one concentration), and synergy positive control +TRAIL (bortezomib; one conconcentrion plus a dose-response range).
Compound dilutions were prepared in clear test medium and added to cells. […] Dye was resolubilized by addition of 10 mM TRIZMA base solution (30 μL) and resuspended on a rotary shaker for a few minutes before reading the plates for absorbance at 520 nm using a Safire plate reader (Tecan Group Ltd., Männedorf, Switzerland). […]

Substance	cleavage of caspase-8 [1]	percent growth inhibition in combination with TRAIL versus sensitizer alone or TRAIL alone (synergistic response) [2]
withanolide E	resulted in the cleavage of caspase-8	substantially greater
withanolide S	–	substantially greater
